Source: publication PMC3495668, “Serotonin-Induced Hypersensitivity via Inhibition of Catechol O-Methyltransferase Activity” (Molecular Pain, 2012)

T1: catechol O-methyltransferase (COMT) (Sus scrofa, UniProt F1RHN3)
T1 construct: Purified COMT protein (derived from porcine liver), biotinylated at surface lysines
T1 sequence (F1RHN3 1-270): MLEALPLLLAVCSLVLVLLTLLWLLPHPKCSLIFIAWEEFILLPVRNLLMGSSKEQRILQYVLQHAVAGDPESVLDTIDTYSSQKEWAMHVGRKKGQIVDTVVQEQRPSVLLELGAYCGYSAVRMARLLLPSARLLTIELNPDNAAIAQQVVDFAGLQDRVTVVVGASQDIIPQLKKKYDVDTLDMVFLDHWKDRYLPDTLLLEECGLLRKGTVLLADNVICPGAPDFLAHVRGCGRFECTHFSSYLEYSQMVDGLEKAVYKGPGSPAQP

B1: catechol O-methyltransferase (COMT) (Sus scrofa) (protein)
chain: T1 sequence (F1RHN3 1-270)
notes: Purified COMT

Tests used:
[1] = target: T1, catechol O-methyltransferase (COMT); experiment: SPR (Biacore […]); also radiolabelled SAM activity assay, Ki,app […]; type: binding
[2] = substrate: Oc1ccccc1O; experiment: radiolabelled SAM methylation assay, Michaelis-Menten KM; type: biochemical, Sus scrofa; conditions: S-adenosyl-L-methionine; Mg2+ ([…] MgCl2) catechol substrate site

Molecule	Kd [1]	Km [2]
NCCc1c[nH]c2ccc(O)cc12 [serotonin]	~87 µM	–
B1	–	16 µM
